Laboratory results reported in patent publication US20250059164A1, “IRAK DEGRADERS AND USES THEREOF” (Kymera Therapeutics, Inc., priority 2023, published 2025).

Legend:
[1] = Rodent pharmacokinetics (rat PK); type: in vivo; conditions: po, dosed intravenously or orally by gavage, plasma, read-out: F % (bioavailability)
Summary of the method: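 Rats were dosed IV or by oral gavage, with jugular blood taken predose and at 5 min (IV only), 15, 30 min and 1, 2, 4, 8, 24 h. Plasma was separated by centrifugation at 4 °C. Oral bioavailability (F %) is coded A (≥5%) or B (≤5%).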

IRAK4 = target: T1, IRAK4 (Homo sapiens, UniProt Q9NWZ3); assay: IRAK4 MSD degradation in OCI-LY10; type: cell-based; conditions: OCI-LY10 cells, 24 hrs, Meso Scale Discovery
T1 construct: endogenous in cells; host or cells: OCI-LY10
T1 sequence (Q9NWZ3 1-460): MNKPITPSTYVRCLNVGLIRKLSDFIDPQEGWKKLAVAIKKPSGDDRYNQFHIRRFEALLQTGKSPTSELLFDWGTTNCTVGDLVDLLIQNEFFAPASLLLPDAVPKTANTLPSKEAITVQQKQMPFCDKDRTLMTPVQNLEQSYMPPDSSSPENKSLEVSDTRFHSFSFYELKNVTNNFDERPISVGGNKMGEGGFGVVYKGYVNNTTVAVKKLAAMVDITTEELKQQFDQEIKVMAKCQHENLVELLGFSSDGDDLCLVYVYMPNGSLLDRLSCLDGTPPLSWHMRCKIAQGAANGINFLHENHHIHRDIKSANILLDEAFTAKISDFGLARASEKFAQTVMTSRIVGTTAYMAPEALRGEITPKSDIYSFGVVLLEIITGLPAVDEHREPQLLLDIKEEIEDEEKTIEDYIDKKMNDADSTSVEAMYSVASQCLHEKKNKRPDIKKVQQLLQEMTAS
Summary of the method: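 OCI-LY10 cells treated 4 to 24 hours at 37° C. with 8-dose 1:3 series, top 1 to 10 μM. IRAK4 in lysates quantified by MSD sandwich immunoassay (mouse capture, rabbit detection, SULFO-TAG anti-rabbit). DC50 from three-parameter logistic fit.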

bioavailability [1] [%] | DC50 (IRAK4) [nM] | Structure (SMILES)
≥ 5 | < 10 | COc1ccc2c(c1[C@@H]1CCN(C[C@H]3CC[C@H](n4cc5cc(NC(=O)c6cncc(C(F)(F)F)n6)ccc5n4)CC3)C[C@H]1F)n(C)c(=O)n2C1CCC(=O)NC1=O (some centres unmarked) [I-347]
≤ 5 | < 10 | Cn1c(=O)n(C2CCC(=O)NC2=O)c2cccc(N3CC4(CCN(C[C@H]5CC[C@H](n6cc7cc(NC(=O)c8cncc(C#N)c8)c(C(C)(C)O)cc7n6)CC5)CC4(F)F)C3)c21 (some centres unmarked) [I-366]
≤ 5 | < 10 | Cn1c(=O)n(C2CCC(=O)NC2=O)c2cccc([C@H]3CCN(C[C@H]4CC[C@H](n5cc(NC(=O)c6cnn7ccc(N8C[C@H]9C[C@@H]8CO9)nc67)c(C(F)F)n5)CC4)CC3(F)F)c21 (single isomer, unassigned) [I-332]
≥ 5 | < 10 | COc1ccc2c(c1[C@H]1CCN(C[C@H]3CC[C@H](n4cc5cc(NC(=O)c6cncc(C(F)(F)F)n6)ccc5n4)CC3)CC1(F)F)n(C)c(=O)n2C1CCC(=O)NC1=O (single isomer, unassigned) [I-392]
≥ 5 | < 10 | CN(C[C@H]1CC[C@H](c2nc3cc(C(C)(C)O)c(NC(=O)c4cncc(C(F)(F)F)c4)cc3s2)CC1)[C@@H]1CCN(c2cccc3c2n(C)c(=O)n3C2CCC(=O)NC2=O)C[C@@H]1F (single isomer, unassigned) [I-161]
≥ 5 | < 10 | Cn1c(=O)n(C2CCC(=O)NC2=O)c2cccc([C@H]3CCN(C[C@H]4CC[C@H](n5cc6cc(NC(=O)c7cncc(C(F)(F)F)n7)ccc6n5)CC4)CC3(F)F)c21 (single isomer, unassigned) [I-180]
≤ 5 | < 10 | Cn1c(=O)n(C2CCC(=O)NC2=O)c2cccc([C@@H]3CCN(C[C@H]4CC[C@H](n5cc(NC(=O)c6cnn7ccc(N8C[C@H]9C[C@@H]8CO9)nc67)c(C(F)F)n5)CC4)C[C@H]3F)c21 (single isomer, unassigned) [I-329]
≤ 5 | < 10 | COc1cc2nn([C@H]3CC[C@H](CN4CC[C@@H](c5c(Cl)ccc6c5n(C)c(=O)n6C5CCC(=O)NC5=O)[C@H](F)C4)CC3)cc2cc1NC(=O)c1cncc(C#N)c1 (some centres unmarked) [I-133]
≥ 5 | 10 to 100 | CN(C[C@H]1CC[C@H](c2nc3cc(C(C)(C)O)c(NC(=O)c4cncc(C(F)(F)F)n4)cc3o2)CC1)[C@@H]1CCN(c2cccc3c2n(C)c(=O)n3C2CCC(=O)NC2=O)C[C@H]1F (single isomer, unassigned) [I-297]
≤ 5 | < 10 | Cc1nc(C(=O)Nc2ccc3nn([C@H]4CC[C@H](CN5CC[C@@H](c6cccc7c6n(C)c(=O)n7C6CCC(=O)NC6=O)[C@H](F)C5)CC4)cc3c2)co1 (some centres unmarked) [I-148]
≥ 5 | < 10 | CN(C[C@H]1CC[C@H](n2cc(NC(=O)c3cnn4cccnc34)c(C(F)F)n2)CC1)[C@H]1CCN(c2cccc3c2n(C)c(=O)n3C2CCC(=O)NC2=O)C[C@@H]1F (single isomer, unassigned) [I-280]
≤ 5 | < 10 | COc1cc2nn([C@H]3CC[C@H](CN4CCC5(CCN(c6cccc7c6n(C)c(=O)n7C6CCC(=O)NC6=O)CC5)C(F)(F)C4)CC3)cc2cc1C(=O)Nc1cncc(C#N)c1 (some centres unmarked) [I-228]
≤ 5 | < 10 | COc1cc2nn([C@H]3CC[C@H](CN4CC[C@@H](c5cccc6c5n(C)c(=O)n6C5CCC(=O)NC5=O)[C@H](F)C4)CC3)cc2cc1C(=O)Nc1cncc(C(F)(F)F)n1 (some centres unmarked) [I-290]
≥ 5 | < 10 | Cn1c(=O)n(C2CCC(=O)NC2=O)c2cccc([C@@H]3CCN(C[C@H]4CC[C@H](c5nc6cc(C(C)(C)O)c(NC(=O)c7cccc(C(F)(F)F)n7)cc6o5)CC4)C[C@H]3F)c21 (some centres unmarked) [I-167]
≤ 5 | < 10 | Cn1c(=O)n(C2CCC(=O)NC2=O)c2cccc([C@@H]3CCN(C[C@H]4CC[C@H](c5cn6cc(NC(=O)c7cccc(C(F)(F)F)n7)ccc6n5)CC4)C[C@H]3F)c21 (some centres unmarked) [I-262]
≤ 5 | < 10 | Cn1c(=O)n(C2CCC(=O)NC2=O)c2cccc([C@@H]3CCN(C[C@H]4CC[C@H](c5cn6cc(NC(=O)c7cccc(C(F)(F)F)n7)c(C(C)(C)O)cc6n5)CC4)C[C@H]3F)c21 (some centres unmarked) [I-268]
≤ 5 | < 10 | O=C1CCC(n2c(=O)oc3c([C@@H]4CCN(C[C@H]5CC[C@H](n6cc7cc(NC(=O)c8cncc(C(F)(F)F)n8)ccc7n6)CC5)C[C@H]4F)cccc32)C(=O)N1 (single isomer, unassigned) [I-357]

bioavailability [1] [%] | DC50 (IRAK4) [nM] | Structure (SMILES)
≤ 5 | 10 to 100 | Cc1nn(C2CCC(=O)NC2=O)c2cccc(N3CCC4(CCN(C[C@H]5CC[C@H](n6cc7cc(NC(=O)c8cncc(C#N)c8)c(C(C)(C)O)cc7n6)CC5)CC4(F)F)CC3)c12 (some centres unmarked) [I-312]
≥ 5 | 10 to 100 | Cc1nn(C2CCC(=O)NC2=O)c2cccc([C@@H]3CCN(C[C@H]4CC[C@H](n5cc6cc(NC(=O)c7cncc(C(F)(F)F)n7)ncc6n5)CC4)C[C@H]3F)c12 (single isomer, unassigned) [I-340]
≤ 5 | < 10 | COc1cc2nn([C@H]3CC[C@H](CN4CCC5(CCN(c6cccc7c6n(C)c(=O)n7C6CCC(=O)NC6=O)CC5)C(F)(F)C4)CC3)cc2cc1NC(=O)c1cncc(C#N)c1 (some centres unmarked) [I-259]
≤ 5 | < 10 | Cn1c(=O)n(C2CCC(=O)NC2=O)c2cccc([C@@H]3CCN(C[C@H]4CC[C@H](n5cc6cc(NC(=O)c7cncc(C(F)(F)F)n7)c(F)cc6n5)CC4)C[C@H]3F)c21 (some centres unmarked) [I-296]
≤ 5 | < 10 | Cn1c(=O)n(C2CCC(=O)NC2=O)c2cccc([C@@H]3CCN(C[C@H]4CC[C@H](c5nc6cc(C(C)(C)O)c(NC(=O)c7cccc(C(F)(F)F)c7)cc6s5)CC4)C[C@H]3F)c21 (some centres unmarked) [I-169]
≤ 5 | > 200 | COc1ccc2c(c1N1CC3(CCN(C[C@H]4CC[C@H](c5nc6cc(C(C)(C)O)c(NC(=O)c7cccc(C(F)(F)F)n7)cc6s5)CC4)CC3(F)F)C1)n(C)c(=O)n2C1CCC(=O)NC1=O (some centres unmarked) [I-414]
≥ 5 | < 10 | CN(C[C@H]1CC[C@H](c2nc3cc(C(C)(C)O)c(NC(=O)c4cncc(C(F)(F)F)c4)cc3s2)CC1)[C@H]1CCN(c2cccc3c2n(C)c(=O)n3C2CCC(=O)NC2=O)C[C@H]1F (single isomer, unassigned) [I-162]
≥ 5 | 10 to 100 | Cc1nn(C2CCC(=O)NC2=O)c2cccc([C@H]3CCN(C[C@H]4CC[C@H](n5cc6cc(NC(=O)c7cncc(C(F)(F)F)n7)ccc6n5)CC4)CC3(F)F)c12 (single isomer, unassigned) [I-372]
≥ 5 | < 10 | CN(C[C@H]1CC[C@H](c2nc3cc(C(C)(C)O)c(NC(=O)c4cccc(C(F)(F)F)c4)cc3s2)CC1)[C@@H]1CCN(c2cccc3c2n(C)c(=O)n3C2CCC(=O)NC2=O)C[C@@H]1F (single isomer, unassigned) [I-192]
≤ 5 | < 10 | COc1cc2nn([C@H]3CC[C@H](CN4CCC5(CN(c6cccc7c6n(C)c(=O)n7C6CCC(=O)NC6=O)C5)C(F)(F)C4)CC3)cc2cc1NC(=O)c1cncc(C)c1 (some centres unmarked) [I-243]
≥ 5 | 10 to 100 | Cn1c(=O)n(C2CCC(=O)NC2=O)c2cccc(C#CCOC[C@H]3CC[C@H](n4cc(NC(=O)c5cnn6ccc(N7C[C@H]8C[C@@H]7CO8)nc56)c(C(F)F)n4)CC3)c21 (some centres unmarked) [I-108]
≥ 5 | > 200 | Cn1c(=O)n(C2CCC(=O)NC2=O)c2cccc([C@@H]3CCN(C[C@H]4CC[C@H](n5cc6cc(NC(=O)c7cc(C(F)(F)F)ccn7)ccc6n5)CC4)C[C@H]3F)c21 (some centres unmarked) [I-134]
≥ 5 | < 10 | Cn1c(=O)n(C2CCC(=O)NC2=O)c2ccc(F)c(N3CC(N4CCN([C@H]5CC[C@H](n6cc(NC(=O)c7cnn8ccc(N9C[C@H]%10C[C@@H]9CO%10)nc78)c(C(F)F)n6)CC5)CC4)C3)c21 (some centres unmarked) [I-117]
≤ 5 | < 10 | Cn1c(=O)n(C2CCC(=O)NC2=O)c2cccc(C#CCN3CCN(C[C@H]4CC[C@H](n5cc(NC(=O)c6cnn7ccc(N8C[C@H]9C[C@@H]8CO9)nc67)c(C(F)F)n5)CC4)CC3=O)c21 (some centres unmarked) [I-186]
≥ 5 | < 10 | CN(C[C@H]1CC[C@H](n2cc(NC(=O)c3cnn4ccc(N5C[C@H]6C[C@@H]5CO6)nc34)c(C(F)F)n2)CC1)[C@H]1CCN(c2cccc3c2n(C)c(=O)n3C2CCC(=O)NC2=O)C[C@@H]1F (single isomer, unassigned) [I-28]
≤ 5 | 10 to 100 | COc1cc2nn([C@H]3CC[C@H](CN4CCC5(CN(c6ccc(C7CCC(=O)NC7=O)c(Cl)c6)C5)C(F)(F)C4)CC3)cc2cc1NC(=O)c1cncc(C#N)c1 (some centres unmarked) [I-128]
≤ 5 | < 10 | COc1cc2nn([C@H]3CC[C@H](CN4CCC5(CCN(c6cccc7c6n(C)c(=O)n7C6CCC(=O)NC6=O)CC5)C(F)(F)C4)CC3)cc2cc1NC(=O)c1cncc(F)c1 (some centres unmarked) [I-127]
